Data taken from PubChem BioAssay (NCI).
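48-hour exposure; five concentrations; linearly interpolated endpoints. Here, GI50 denotes the concentration required for 50% inhibition of growth. TGI: concentration producing complete growth inhibition.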

Key:
Assay in all cases: NCI anticancer screen, dose series, 48 h
NCI-H522 lung = test system: NCI-H522 lung
HL-60(TB) leukemia = test system: HL-60(TB) leukemia
NCI-H23 lung = test system: NCI-H23 lung
OVCAR-4 ovarian = test system: OVCAR-4 ovarian
OVCAR-3 ovarian = test system: OVCAR-3 ovarian
U251 CNS = test system: U251 CNS
NCI/ADR-RES ovarian = test system: NCI/ADR-RES ovarian
TK-10 renal = test system: TK-10 renal
EKVX NSCLC = test system: EKVX NSCLC
SN12C renal = test system: SN12C renal

Row | SMILES | GI50 (NCI-H522 lung) | TGI (NCI-H522 lung) | GI50 (HL-60(TB) leukemia) | TGI (HL-60(TB) leukemia) | GI50 (NCI-H23 lung) | TGI (NCI-H23 lung) | GI50 (OVCAR-4 ovarian) | TGI (OVCAR-4 ovarian) | GI50 (OVCAR-3 ovarian) | TGI (OVCAR-3 ovarian) | GI50 (U251 CNS) | TGI (U251 CNS) | GI50 (NCI/ADR-RES ovarian) | TGI (NCI/ADR-RES ovarian) | GI50 (TK-10 renal) | TGI (TK-10 renal) | GI50 (EKVX NSCLC) | TGI (EKVX NSCLC) | GI50 (SN12C renal) | TGI (SN12C renal)
1 | C=C1C(=O)O[C@H]2[C@H]1CC/C(COC(=O)/C=C/c1c[nH]c3ccccc13)=C\CC[C@@]1(C)O[C@@H]21 | 0.186 µM | 0.371 µM | 0.256 µM | 0.717 µM | 1.25 µM | 4.32 µM | 0.207 µM | 0.546 µM | 0.173 µM | 0.37 µM | 0.212 µM | 0.528 µM | 0.357 µM | 12.2 µM | 0.279 µM | 0.709 µM | 0.238 µM | 0.769 µM | 0.197 µM | 0.478 µM
2 | O=C(Nc1cccc([N+](=O)[O-])c1)c1cc2ccccc2cc1O | 0.384 µM | 2.66 µM | 0.59 µM | 3.03 µM | 0.72 µM | 3.65 µM | 2.61 µM | > 100 µM | 0.783 µM | 7.33 µM | 1.48 µM | 9.27 µM | 1.76 µM | 6.54 µM | 4.03 µM | 9.46 µM | 1.87 µM | 8.2 µM | 1.17 µM | 7.78 µM
3 | N#C/C(=C\c1cccnc1)c1nc2ccccc2o1 | > 100 µM | > 100 µM | > 100 µM | > 100 µM | > 100 µM | > 100 µM | > 100 µM | > 100 µM | > 100 µM | > 100 µM | > 100 µM | > 100 µM | > 100 µM | > 100 µM | > 100 µM | > 100 µM | > 100 µM | > 100 µM | > 100 µM | > 100 µM
4 | COc1ccc(/C=C/c2cnc3ccccc3n2)cc1OC | – | 69.5 µM | – | > 100 µM | – | > 100 µM | – | > 100 µM | – | > 100 µM | – | > 100 µM | – | > 100 µM | – | > 100 µM | – | > 100 µM | – | > 100 µM
5 | O=c1[nH]cnc2nc(-c3ccc(N(CCCl)CCCl)cc3)[nH]c12 | > 100 µM | > 100 µM | > 100 µM | > 100 µM | 31.7 µM | > 100 µM | 20.1 µM | > 100 µM | 22.8 µM | 79.6 µM | 20.1 µM | > 100 µM | 13.1 µM | > 100 µM | 15.4 µM | 48.4 µM | 11 µM | > 100 µM | 63.7 µM | > 100 µM
6 | CN(C)c1ccc(N=C(C#N)c2nc(N)nc(N3CCN(c4ccccc4)CC3)n2)cc1 | > 50 µM | > 50 µM | > 50 µM | > 50 µM | > 50 µM | > 50 µM | 18.9 µM | > 34.1 µM | 27.5 µM | > 50 µM | > 35.1 µM | > 50 µM | 34.2 µM | > 50 µM | > 30.6 µM | > 50 µM | > 30.1 µM | > 50 µM | > 50 µM | > 50 µM
7 | O=C(O)c1ccc2cccnc2c1O | 0.948 µM | 13.3 µM | 1.89 µM | 6.43 µM | 1.05 µM | 29.1 µM | 0.411 µM | > 100 µM | 1.68 µM | 5.22 µM | 0.672 µM | > 59.4 µM | 1.33 µM | 36.2 µM | 1.85 µM | > 100 µM | 1.75 µM | > 46 µM | 0.797 µM | > 72.2 µM
8 | CCC1OC(/C(C)=C/C(C)/C=C/C2C(C)C2/C=C/C2OC(CC(=O)O)CC(O)C2O)CC=C1C (centres undefined) | > 50 µM | > 50 µM | – | – | > 50 µM | > 50 µM | > 50 µM | > 50 µM | – | – | > 50 µM | > 50 µM | 14.4 µM | > 50 µM | 9.6 µM | > 50 µM | > 50 µM | > 50 µM | > 50 µM | > 50 µM
9 | CC(=O)Nc1cc2cc(NS(=O)(=O)c3cc(C(F)(F)F)cc(C(F)(F)F)c3)ccc2oc1=O | – | > 100 µM | – | > 100 µM | – | > 100 µM | – | > 100 µM | – | > 100 µM | – | > 100 µM | – | > 100 µM | – | > 100 µM | – | > 100 µM | – | > 100 µM
10 | N#Cc1ccc2c(c1)C(=O)c1c-2n(CCCN=[N+]=[N-])c(=O)c2cc([N+](=O)[O-])ccc12 | 37.4 µM | > 50 µM | > 50 µM | > 50 µM | 49.5 µM | > 50 µM | > 50 µM | > 50 µM | > 50 µM | > 50 µM | 4.49 µM | > 50 µM | > 50 µM | > 50 µM | > 50 µM | > 50 µM | > 50 µM | > 50 µM | 47.2 µM | > 50 µM
11 | O[C@H](CN1CC1)[C@@H](O)CN1CC1 | 8.2 µM | 83.3 µM | 1.22 µM | > 100 µM | 3.24 µM | > 100 µM | 15.4 µM | > 100 µM | 13.3 µM | 35.2 µM | 5.78 µM | 45.6 µM | 2.8 µM | 53.1 µM | 21.3 µM | 77.6 µM | 15 µM | 49.6 µM | 1.86 µM | > 100 µM
12 | COc1cccc2ccc3c(c12)C(=O)OC31CCc2c(C)cccc21 (centres undefined) | – | > 31.6 µM | – | 32.9 µM | – | > 46.4 µM | – | > 46.4 µM | – | > 46.4 µM | – | > 46.4 µM | – | > 100 µM | – | > 100 µM | – | > 46.4 µM | – | > 46.4 µM
13 | C=C(C)[C@@H]1CC[C@]2(C)[C@H](CC=C3[C@@H]4[C@H](C)[C@@H](C)CC[C@]4(CO)CC[C@]32C)[C@@]1(C)CCCN | 1.04 µM | 2.17 µM | 1.03 µM | 2.27 µM | 1.34 µM | 4 µM | 0.86 µM | 2.85 µM | 0.934 µM | 1.79 µM | – | – | 0.986 µM | 2.17 µM | 2.21 µM | 9.75 µM | 1.08 µM | 2.94 µM | 0.839 µM | 1.67 µM
